Assay results: patent US7550158B2, “Controlled release by extrusion of solid amorphous dispersions of drugs” (Bend Research, Inc., priority 1999, dated 2009)
Converted amounts (≈) assume the structure as drawn.

Legend:
Format in all cases: physicochemical
[1] = Dissolution in MFD solution (Example 6); settings: 50 ml MFD solution, Drug 1
Description: 1. The data for the tri-layer tablet is the average of the values for the two tablets tested.

[2] = Water solubility of the drug
[3] = Dissolution in phosphate buffered saline (PBS) solution (Example 3); settings: 35 ml PBS solution, Drug 2
Description: For a comparative dissolution study, Control E, consisting of 35 mg of crystalline Drug 2 was prepared. The dissolution of drug was studied by placing two of the trilayer tablets and Control E each in 35 ml of a phosphate buffered saline (PBS) solution composed of 6 mm KH2PO4, 5 mM NaOH, 60 mM KCl and 30 mM NaCl. The data for the trilayer tablet is the average of the values for the two tablets tested.

[4] = Dissolution in phosphate-buffered solution pH 7.2 simulating intestinal environment (Example 7); settings: 50 ml phosphate-buffered solution pH 7.2, Drug 2
Description: For a comparative dissolution study, Control G, consisting of 100 mg of crystalline Drug 2 was prepared. The dissolution of drug was studied by placing one each of the bi-layer tablet and Control G preparation containing an equal amount of Drug 2 in 50 ml of the phosphate-buffered solution of Example 3 (pH 7.2, osmotic pressure 5.3 atm) to simulate an intestinal environment of use.

[5] = Dissolution in MFD solution (Example 8, sertraline); settings: 40 ml MFD solution
Description: For a comparative dissolution study, Control H, consisting of 111.4 mg of the crystalline drug, was used. The dissolution of drug was studied by placing the bilayer tablet and Control H each in 40 ml of MFD solution.

Structure (SMILES): CON(C)C(=O)C(O)[C@H](Cc1ccccc1)NC(=O)c1cc2cc(Cl)ccc2[nH]1 (stereo in doubt) [Control F, [R-(R*,S*)]-5-chloro-N-[2-hydroxy-3-[methoxymethylamino)-3-1-(phenylmethyl)propyl]propyl]-1H-indole-2-carboxamide]
- MDC (maximum drug concentration) [1]: 16 µg/mL
- [Drug] drug concentration ([1]; time 0 hr): 0 µg/mL
- [Drug] drug concentration ([1]; time 2 hr): 13 µg/mL
- [Drug] drug concentration ([1]; time 4 hr): 16 µg/mL
- [Drug] drug concentration ([1]; time 8 hr): 13 µg/mL
- [Drug] drug concentration ([1]; time 12 hr): 15 µg/mL
- [Drug] drug concentration ([1]; time 20 hr): 12 µg/mL
- [Drug] drug concentration ([1]; time 24 hr): 11 µg/mL

Structure (SMILES): CON(C)C(=O)C(O)[C@H](Cc1ccccc1)NC(=O)c1cc2cc(Cl)ccc2[nH]1 (stereo in doubt) [Drug 1, [R-(R*,S*)]-5-chloro-N-[2-hydroxy-3-[methoxymethylamino)-3-1-(phenylmethyl)propyl]propyl]-1H-indole-2-carboxamide]
- water solubility [2]: 1 µg/mL (≈ 2.4 µM)

Structure (SMILES): O=C(N[C@@H](Cc1ccccc1)[C@@H](O)C(=O)N1C[C@@H](O)[C@@H](O)C1)c1cc2cc(Cl)ccc2[nH]1 [Control E]
- MDC (maximum drug concentration) [3]: 171 µg/mL
- [Drug] drug concentration ([3]; time 0.3 hrs): 99 µg/mL
- [Drug] drug concentration ([3]; time 1.5 hrs): 148 µg/mL
- [Drug] drug concentration ([3]; time 2.0 hrs): 165 µg/mL
- [Drug] drug concentration ([3]; time 3.0 hrs): 137 µg/mL
- [Drug] drug concentration ([3]; time 4.0 hrs): 142 µg/mL
- [Drug] drug concentration ([3]; time 12.0 hrs): 157 µg/mL
- [Drug] drug concentration ([3]; time 20.0 hrs): 171 µg/mL

Structure (SMILES): O=C(N[C@@H](Cc1ccccc1)[C@@H](O)C(=O)N1C[C@@H](O)[C@@H](O)C1)c1cc2cc(Cl)ccc2[nH]1 [Control G]
- MDC (maximum drug concentration) [4]: 77 µg/mL
- [Drug] drug concentration ([4]; time 0 hr): 0 µg/mL
- [Drug] drug concentration ([4]; time 1 hr): 59 µg/mL
- [Drug] drug concentration ([4]; time 2 hr): 72 µg/mL
- [Drug] drug concentration ([4]; time 4 hr): 72 µg/mL
- [Drug] drug concentration ([4]; time 8 hr): 77 µg/mL
- [Drug] drug concentration ([4]; time 12 hr): 71 µg/mL
- [Drug] drug concentration ([4]; time 18 hr): 71 µg/mL
- [Drug] drug concentration ([4]; time 24 hr): 75 µg/mL

Structure (SMILES): CN[C@H]1CC[C@@H](c2ccc(Cl)c(Cl)c2)c2ccccc21 [Control H, sertraline]
- MDC (maximum drug concentration) [5]: 401 µg/mL
- AUC ([5]; time 0 hr): 0 µg·min/mL
- [Drug] drug concentration ([5]; time 0 hr): 0 µg/mL
- [Drug] drug concentration ([5]; time 0.2 hr): 278 µg/mL
- [Drug] drug concentration ([5]; time 0.3 hr): 401 µg/mL
- [Drug] drug concentration ([5]; time 0.7 hr): 341 µg/mL
- [Drug] drug concentration ([5]; time 1.5 hr): 217 µg/mL
- [Drug] drug concentration ([5]; time 2 hr): 188 µg/mL
- [Drug] drug concentration ([5]; time 3 hr): 168 µg/mL
- [Drug] drug concentration ([5]; time 4 hr): 152 µg/mL
- [Drug] drug concentration ([5]; time 6 hr): 160 µg/mL
- [Drug] drug concentration ([5]; time 10 hr): 137 µg/mL
- [Drug] drug concentration ([5]; time 14 hr): 135 µg/mL
- [Drug] drug concentration ([5]; time 24 hr): 191 µg/mL
